Experimental data: ChEMBL document CHEMBL6078684, “Discovery of a Novel Non-invasive AR PROTAC Degrader for the Topical Treatment of Androgenetic Alopecia” (J Med Chem, 2024)
Activity calls are given as the source filed them. No cut-off for these calls is given here.

Experiments:
[1] = Drug uptake in male Sprague-Dawley rat Dorsal skin assessed as retention rat at 1 mg/ml, TOP measured after 30 mins by LC-MS/MS analysis; format: ADME, tissue-based, Zone of skin; details: in vivo, topical_or_ocular, 0.5 h
[2] = target: T1, Protein cereblon/Androgen receptor (Homo sapiens, UniProt P10275+Q96SW2); experiment: PROTAC activity at CRBN/AR in human dermal papilla cell assessed as induction of AR degradation measured after 24 hrs by Western blot analysis; format: cell-based
Target sequence in this assay (P10275 whole entry): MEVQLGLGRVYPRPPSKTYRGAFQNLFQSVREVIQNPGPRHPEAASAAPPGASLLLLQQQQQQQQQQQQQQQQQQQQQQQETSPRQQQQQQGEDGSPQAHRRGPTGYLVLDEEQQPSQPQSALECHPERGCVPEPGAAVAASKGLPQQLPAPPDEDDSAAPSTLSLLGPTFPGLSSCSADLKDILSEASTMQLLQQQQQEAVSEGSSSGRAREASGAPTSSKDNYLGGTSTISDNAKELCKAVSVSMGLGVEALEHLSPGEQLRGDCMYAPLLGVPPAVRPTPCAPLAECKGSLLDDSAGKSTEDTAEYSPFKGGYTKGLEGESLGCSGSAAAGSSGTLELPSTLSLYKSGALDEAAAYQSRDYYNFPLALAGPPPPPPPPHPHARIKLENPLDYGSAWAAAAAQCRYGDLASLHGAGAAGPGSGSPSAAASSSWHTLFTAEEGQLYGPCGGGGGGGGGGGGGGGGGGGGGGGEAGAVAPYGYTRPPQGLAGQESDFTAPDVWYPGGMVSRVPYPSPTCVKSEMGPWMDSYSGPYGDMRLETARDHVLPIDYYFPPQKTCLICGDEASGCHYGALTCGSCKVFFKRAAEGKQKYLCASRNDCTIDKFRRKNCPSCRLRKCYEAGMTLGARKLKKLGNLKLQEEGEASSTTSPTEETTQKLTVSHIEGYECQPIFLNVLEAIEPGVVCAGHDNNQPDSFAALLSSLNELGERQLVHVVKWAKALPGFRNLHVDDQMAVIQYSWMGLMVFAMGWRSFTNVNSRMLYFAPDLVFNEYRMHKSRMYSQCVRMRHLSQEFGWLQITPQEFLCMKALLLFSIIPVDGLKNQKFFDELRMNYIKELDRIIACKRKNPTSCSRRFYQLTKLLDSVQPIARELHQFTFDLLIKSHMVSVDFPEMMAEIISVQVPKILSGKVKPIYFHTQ
Target sequence in this assay (Q96SW2 whole entry): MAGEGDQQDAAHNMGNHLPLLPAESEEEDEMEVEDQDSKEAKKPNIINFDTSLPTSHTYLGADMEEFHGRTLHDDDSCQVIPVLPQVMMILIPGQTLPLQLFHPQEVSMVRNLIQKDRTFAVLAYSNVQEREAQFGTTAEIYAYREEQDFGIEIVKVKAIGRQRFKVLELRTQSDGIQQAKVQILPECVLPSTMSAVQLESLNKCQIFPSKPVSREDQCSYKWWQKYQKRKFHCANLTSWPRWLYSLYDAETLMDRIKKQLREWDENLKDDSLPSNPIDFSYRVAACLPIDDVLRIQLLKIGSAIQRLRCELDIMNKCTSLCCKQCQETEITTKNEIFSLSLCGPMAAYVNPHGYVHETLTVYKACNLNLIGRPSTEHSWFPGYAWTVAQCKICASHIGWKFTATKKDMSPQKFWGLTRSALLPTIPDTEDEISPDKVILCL

[3] = target: T1, Protein cereblon/Androgen receptor; experiment: PROTAC activity at CRBN/AR in human dermal papilla cells assessed as induction of AR degradation at 500 nM in presence of warhead of compound by Western blot analysis; format: cell-based; details: Human dermal papilla cell
Target sequence in this assay (P10275 whole entry, looked up): as the sequence (P10275 whole entry) above
Target sequence in this assay (Q96SW2 whole entry, looked up): as the sequence (Q96SW2 whole entry) above

[4] = target: T1, Protein cereblon/Androgen receptor; experiment: PROTAC activity at CRBN/AR in human dermal papilla cells assessed as decrease in AR protein level at 250 to 1000 nM preincubated with testosterone for 24 hrs followed by compound addition and measured after 48 hrs by Western blot analysis; format: cell-based; details: Human dermal papilla cell, dose 250-1000 nM
Target sequence in this assay (P10275 whole entry, looked up): as the sequence (P10275 whole entry) above
Target sequence in this assay (Q96SW2 whole entry, looked up): as the sequence (Q96SW2 whole entry) above

[5] = target: T1, Protein cereblon/Androgen receptor; experiment: PROTAC activity at CRBN/AR in human dermal papilla cells assessed as decrease in AR protein level at 1 uM preincubated with testosterone for 24 hrs followed by compound addition and measured after 48 hrs by Western blot analysis; format: cell-based; details: Human dermal papilla cell
Target sequence in this assay (P10275 whole entry, looked up): as the sequence (P10275 whole entry) above
Target sequence in this assay (Q96SW2 whole entry, looked up): as the sequence (Q96SW2 whole entry) above

[6] = AUC (0 to t) in male ICR mouse skin at 4 mg/ml, TOP measured after 12 hrs by LC-MS/MS analysis; format: ADME, tissue-based, Skin of body; details: in vivo, topical_or_ocular
[7] = Ratio of drug concentration in male ICR mouse skin to plasma at 4 mg/ml, TOP measured after 1 hrs by LC-MS/MS analysis; format: ADME, cell-free; details: topical or ocular
[8] = Ratio of drug concentration in male ICR mouse skin to plasma at 4 mg/ml, TOP measured after 12 hrs by LC-MS/MS analysis; format: ADME, cell-free; details: other tissue, topical_or_ocular
[9] = Ratio of drug concentration in male ICR mouse skin to heart at 4 mg/ml, TOP measured after 1 hrs by LC-MS/MS analysis; format: ADME, tissue-based; details: in vivo, topical_or_ocular
[10] = Ratio of drug concentration in male ICR mouse skin to heart at 4 mg/ml, TOP measured after 8 hrs by LC-MS/MS analysis; format: ADME, tissue-based; details: in vivo, topical_or_ocular
[11] = Ratio of drug concentration in male ICR mouse skin to liver at 4 mg/ml, TOP measured after 1 hrs by LC-MS/MS analysis; format: ADME, tissue-based; details: in vivo, topical_or_ocular
[12] = Ratio of drug concentration in male ICR mouse skin to spleen at 4 mg/ml, TOP measured after 2 hrs by LC-MS/MS analysis; format: ADME, tissue-based; details: in vivo, topical_or_ocular
[13] = Ratio of drug concentration in male ICR mouse skin to spleen at 4 mg/ml, TOP measured after 8 hrs by LC-MS/MS analysis; format: ADME, tissue-based; details: in vivo, topical_or_ocular
[14] = Ratio of drug concentration in male ICR mouse skin to spleen at 4 mg/ml, TOP measured after 12 hrs by LC-MS/MS analysis; format: ADME, tissue-based; details: in vivo, topical_or_ocular
[15] = Ratio of drug concentration in male ICR mouse skin to lungs at 4 mg/ml, TOP measured after 1 hrs by LC-MS/MS analysis; format: ADME, tissue-based, Skin/Lung; details: in vivo, topical_or_ocular
[16] = Ratio of drug concentration in male ICR mouse skin to lungs at 4 mg/ml, TOP measured after 12 hrs by LC-MS/MS analysis; format: ADME, tissue-based, Skin/Lung; details: in vivo, topical_or_ocular
[17] = tested on: Mus musculus; experiment: Hair regeneration efficacy in testosterone induced male C57BL/6 mouse androgenetic alopecia model assessed as improvement in morphology of regenerated hair at 0.1 %, TOP administered once daily for 14 days with co-administration of 0.2% testosterone and measured after 28 days by SEM analysis; format: functional, organism-based; details: time 28.0 day

Drug uptake [1]: 2.48%
DC50 [2]: 262 nM
Activity [3]: inactive
Activity [4]: Active
AUCt [6]: 651924.91 ng·h/g
Kp at 1 h [7]: 71.5
Ratio [8]: 1736.28
Ratio [9]: 996.6
Ratio [10]: 754.91
Ratio [11]: 485.29
Ratio [12]: 450.95
Ratio [13]: 347.97
Ratio [14]: 249.88
Ratio [15]: 476.62
Ratio [16]: 288.26
Compound: N#Cc1ccc(O[C@H]2CC[C@H](NC(=O)c3ccc(C4CCN(CC5CCCN(c6ccc(C(=O)NC7CCC(=O)NC7=O)cc6)C5)CC4)cc3)CC2)cc1Cl (some centres not stated)
Activity [5]: Active; Most Pronounced Degradation Observed
Activity [17]: Active
